{
  "source": "patent US10300020B2",
  "about": "(West-Ward Pharmaceuticals International Limited, priority 2005, dated 2019)",
  "details": "calcium acetate used in Example 1",
  "description": "In another preferred embodiment, the bulk density is between about 0.30 g/cc to about less than 0.55 g/cc. More preferably the bulk density is between about 0.30 g/cc to about 0.45 g/cc.",
  "data": [
    {"compound": "CC(=O)[O-].CC(=O)[O-].[Ca+2]", "note": "[calcium acetate]", "values": [
      {"measurement": "bulk density", "value": 0.47, "unit": "g/cc"}
    ]}
  ]
}
